Literature values in publication PMC6237330, “Bioactivity of selected materials for coffee substitute” (PLoS ONE, 2018).

Columns and labels:
animals = tested on: animals; design: method as in earlier work; settings: in the laboratory
mice = tested on: mice; design: method as in PMID 20237914; settings: 2 mg furan/kg bwt

| Compound | Tumors in animals (animals) | Tumor induction (mice) |
| --- | --- | --- |
| C=CC(N)=O [ACR, acrylamide] | causes tumors in animals | – |
| c1ccoc1 [furan] | – | may induce tumor |
